Results taken from patent US20130324526A1, “[1,2,4] TRIAZOLO [4,3-B] PYRIDAZINE COMPOUNDS AS INHIBITORS OF THE C-MET TYROSINE KINASE” (NOVARTIS AG, priority 2011, published 2013).

Legend:
[1] = target: c-MET receptor tyrosine kinase, GST-c-MET(969-1390) (Homo sapiens, UniProt P08581); experiment: EPK c-MET profiling assay (LanthaScreen TR-FRET kinase assay); assay type: biochemical; conditions: 2 μM ATP, 0.3 nM enzyme, 60 minutes at room temperature; end point measurement, repeats can be about two times higher or lower; read-out: c-Met Biochem IC50
Description: The exemplified compounds of the present invention were assayed in an antibody based kinase phosphorylation assay as follows.
EPK c-MET Profiling Assay:
The EPK kinase assay for c-MET receptor tyrosine kinase was developed, using the purified recombinant GST-fusion protein, containing the cytoplasmic domain of the enzyme. GST-c-MET(969-1390) was purified by affinity chromatography.
The kinase assay is based on the LanthaScreen™ technology. LanthaScreen™ is the detection of Time-Resolved Fluorescence Resonance Energy Transfer (TR-FRET) using lanthanide chelates to measure interactions between various binding partners. In a TR-FRET kinase assay, a long-lifetime lanthanide donor species is conjugated to an antibody that specifically binds to a phosphorylated product of a kinase reaction that is labeled with a suitable acceptor fluorophore. This antibody-mediated interaction brings the lanthanide donor and the acceptor into proximity such that resonance energy transfer can take place, resulting in a detectable increase in the FRET signal.
The kinase reactions were performed in 384 well microtiter plates in a total reaction volume of 10.05 μL. The assay plates were prepared with 0.05 μL per well of test compound in the appropriate test concentration, as described under “preparation of compound dilutions”. The reactions were started by combining 5 μL of ATP solution with 5 μL of enzyme-substrate mix (consisting of kinase and substrate). The final concentrations in the kinase reactions were 25 mM Tris/HCl, 1 mM DTT, 0.025% Tween20, 10 μM sodium orthovanadate, 0.25% BSA, 0.5% DMSO, 10 mM MgCl2, 3 mM MnCl2, 2 μM ATP, 50 nM Fluorescein-PolyEAY, and 0.3 nM enzyme. The reactions were incubated for 60 minutes at room temperature and stopped by adding 5 μL of stop buffer (50 mM EDTA, 0.04% NP40, 20 mM Tris/HCl). Subsequently 5 μL of detection mix (50 mM Tris/HCl, 2 mM DTT, 0.05% Tween20, 20 μM sodium orthovanadate, 1% BSA, 1 nM Tb-PY20 antibody) were added to the stopped reactions. After 45 minutes incubation in dark at room temperature, the plates were measured in a Perkinelmer Envision fluorescence reader. The effect of compound on the enzymatic activity was in all assays obtained from the linear progress curves and normally determined from one reading (end point measurement).
These endpoint results should therefore only be seen as an indicator for the activity range, since repeated measurements can result in about two times higher or lower values.

[2] = tested on: GTL16 cells; experiment: GTL16 cell viability assay (CellTiter Glo); assay type: cell-based; conditions: Homo sapiens, GTL 16, GTL16 gastric cancer cells, 24 hours, triplicates, read-out: GTL-16 Proliferation IC50
Description: GTL16 cell line is derived from a gastric cancer patient. GTL16 expresses high level of c-Met receptor tyrosine kinase due to the gene amplification.
GTL16 cells were seeded in DMEM medium with 10% FBS and 1% Pene. & Strep. at 5000 cells/well/90 μL in 96 well plate and incubated overnight for attachment at 37° C. in 5% CO2 incubator. 10-fold serials dilutions of compounds were added to the cell as 10 μL/well. The final assay volume was 100 μl/well. The assay plates were incubated at 37° C. in 5% CO2 incubator for 24 hours. […] Briefly, the plates were cooled at room temperature for 10 mins and 100 μl of CellTiter Glo reagent was added into each well. Plates were shaken for 10 mins. The chemiluminescent light unit was read in Envision from Perkin Elmer. All the tests were run at triplicates. The IC50 was calculated using Spotfire software.

[3] = target: T1, human platelet PDE3 (Homo sapiens, UniProt Q14432); experiment: hPDE3 assay ([3H]cAMP scintillation proximity assay); assay type: biochemical; conditions: human platelet PDE3, [3H]cAMP SPA, 30 min at room temperature
T1 construct: Human platelet PDE3 (partially purified from human platelets); from tissue; host or cells: human platelets
T1 sequence (Q14432 whole entry): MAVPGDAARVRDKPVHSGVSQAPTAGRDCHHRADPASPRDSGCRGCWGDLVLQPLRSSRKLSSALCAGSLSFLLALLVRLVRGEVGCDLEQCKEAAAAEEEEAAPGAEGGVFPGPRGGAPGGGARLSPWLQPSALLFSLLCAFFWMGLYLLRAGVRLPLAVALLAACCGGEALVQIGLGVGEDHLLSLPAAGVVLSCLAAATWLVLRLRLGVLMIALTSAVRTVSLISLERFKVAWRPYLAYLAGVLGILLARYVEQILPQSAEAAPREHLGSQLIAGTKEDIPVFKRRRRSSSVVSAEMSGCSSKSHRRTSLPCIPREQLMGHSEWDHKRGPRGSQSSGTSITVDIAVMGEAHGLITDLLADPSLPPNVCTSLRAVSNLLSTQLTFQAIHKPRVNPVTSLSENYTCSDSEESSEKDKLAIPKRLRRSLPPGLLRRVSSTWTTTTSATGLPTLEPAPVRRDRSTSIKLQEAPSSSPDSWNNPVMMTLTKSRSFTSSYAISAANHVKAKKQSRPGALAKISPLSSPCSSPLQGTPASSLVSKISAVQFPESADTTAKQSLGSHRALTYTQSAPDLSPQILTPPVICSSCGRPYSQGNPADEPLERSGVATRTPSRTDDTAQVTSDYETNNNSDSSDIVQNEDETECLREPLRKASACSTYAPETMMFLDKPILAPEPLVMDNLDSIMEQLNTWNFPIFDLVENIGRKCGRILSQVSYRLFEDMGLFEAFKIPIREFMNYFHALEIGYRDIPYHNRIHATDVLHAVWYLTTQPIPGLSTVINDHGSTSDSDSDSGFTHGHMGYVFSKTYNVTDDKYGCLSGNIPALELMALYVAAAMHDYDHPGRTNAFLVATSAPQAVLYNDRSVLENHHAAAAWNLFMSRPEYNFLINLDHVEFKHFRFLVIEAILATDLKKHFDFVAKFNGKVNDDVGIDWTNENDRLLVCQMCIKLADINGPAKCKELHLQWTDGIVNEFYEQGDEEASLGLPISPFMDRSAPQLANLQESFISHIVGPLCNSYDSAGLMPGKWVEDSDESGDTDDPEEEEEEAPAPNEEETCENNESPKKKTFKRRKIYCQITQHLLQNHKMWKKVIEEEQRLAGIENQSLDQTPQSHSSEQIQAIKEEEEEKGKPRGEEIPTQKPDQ

Sequence of c-MET receptor tyrosine kinase, GST-c-MET(969-1390) (P08581 969-1390): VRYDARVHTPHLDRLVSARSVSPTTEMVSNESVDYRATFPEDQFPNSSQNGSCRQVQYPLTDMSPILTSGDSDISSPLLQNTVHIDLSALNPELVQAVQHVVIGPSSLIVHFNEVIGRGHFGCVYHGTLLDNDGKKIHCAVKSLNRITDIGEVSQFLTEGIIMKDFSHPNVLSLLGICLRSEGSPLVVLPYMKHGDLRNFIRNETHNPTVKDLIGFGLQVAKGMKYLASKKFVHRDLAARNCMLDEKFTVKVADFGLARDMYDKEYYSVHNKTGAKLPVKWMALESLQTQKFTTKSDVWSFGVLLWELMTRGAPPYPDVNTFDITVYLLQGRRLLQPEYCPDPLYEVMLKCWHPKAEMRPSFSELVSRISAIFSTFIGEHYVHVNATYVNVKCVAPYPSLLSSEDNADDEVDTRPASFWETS

| Compound | IC50 [1] [nM] | IC50 [3] [nM] | IC50 [2] [nM] |
| --- | --- | --- | --- |
| C/C(=N\O)c1ccc2nnc(Cc3ccc4ncc(CN5CCOCC5)cc4c3)n2n1 [Example 15, (E)-1-(3-((3-(Morpholin-4-yl-methyl)quinolin-6-yl)methyl)-[1,2,4]triazolo[4,3-b]pyridazin-6-yl)ethanone oxime] | 7 | > 30000 | 13 |
| C/C(=N\O)c1ccc2nnc([C@H](C)c3c(F)cc4ncc(-c5cnn(C)c5)cc4c3F)n2n1 [Example 21-(R), (R,E)-1-(3-(1-(5,7-difluoro-3-(1-methyl-1H-pyrazol-4-yl)quinolin-6-yl)ethyl)-[1,2,4]triazolo[4,3-b]pyridazin-6-yl)ethanone oxime] | 47 | 7000 | 30 |
| C/C(=N\O)c1ccc2nnc([C@@H](C)c3c(F)cc4ncc(-c5cnn(C)c5)cc4c3F)n2n1 [Example 21-(S), (S,E)-1-(3-(1-(5,7-difluoro-3-(1-methyl-1H-pyrazol-4-yl)quinolin-6-yl)ethyl)-[1,2,4]triazolo[4,3-b]pyridazin-6-yl)ethanone oxime] | 3 | 4000 | 7 |
| C/C(=N\OCCO)c1ccc2nnc(Cc3c(F)cc4ncc(C5CCCCC5)cc4c3F)n2n1 [Example 25, (E)-1-(3-((3-Cyclohexyl-5,7-difluoroquinolin-6-yl)methyl)-[1,2,4]triazolo[4,3-b]pyridazin-6-yl)ethanone O-2-hydroxyethyl oxime] | 16 | 3000 | 12 |
| C/C(=N\O)c1ccc2nnc(Cc3c(F)cc4ncc(C5CCCCC5)cc4c3F)n2n1 [Example 26, (E)-1-(3-((3-Cyclohexyl-5,7-difluoroquinolin-6-yl)methyl)-[1,2,4]triazolo[4,3-b]pyridazin-6-yl)-ethanone oxime] | 15 | > 30000 | 93 |
| C/C(=N\O)c1ccc2nnc(Sc3ccc4ncc(N5CCN(C)CC5)cc4c3)n2n1 [Example 28, (E)-1-(3-((3-(4-Methylpiperazin-1-yl)quinolin-6-yl)sulfanyl)-[1,2,4]triazolo[4,3-b]pyridazin-6-yl)-ethanone oxime] | 5 | > 30000 | 2 |
| C/C(=N\O)c1ccc2nnc(Sc3ccc4ncc(CN5CCOCC5)cc4c3)n2n1 [Example 31, (E)-1-(3-((3-(Morpholin-4-yl-methyl)quinolin-6-yl)sulfanyl)-[1,2,4]triazolo[4,3-b]pyridazin-6-yl)-ethanone oxime] | 3 | > 30000 | 23 |
| CCN(CC)Cc1cnc2ccc(Sc3nnc4ccc(/C(C)=N/O)nn34)cc2c1 [Example 32, (E)-1-(3-((3-((diethylamino)methyl)quinolin-6-yl)sulfanyl)-[1,2,4]triazolo[4,3-b]pyridazin-6-yl)ethanone oxime] | 4 | > 30000 | 256 |

The remaining molecules from weak to strong by IC50 [1], led by results:

| IC50 [1] [nM] | IC50 [3] [nM] | Compound | IC50 [2] [nM] |
| --- | --- | --- | --- |
| 3 | 25000 | C/C(=N\O)c1ccc2nnc(Cc3ccc4ncc(N5CCN(C)CC5)cc4c3)n2n1 [Example 14, (E)-1-(3-((3-(4-Methylpiperazin-1-yl)quinolin-6-yl)methyl)-[1,2,4]triazolo[4,3-b]pyridazin-6-yl)ethanone oxime] | 2 |
| 2 | 14000 | C/C(=N\O)c1ccc2nnc(Cc3ccc4ncc(N5CCOCC5)cc4c3)n2n1 [Example 13, (E)-1-(3-((3-Morpholin-4-yl-quinolin-6-yl)methyl)-[1,2,4]triazolo[4,3-b]pyridazin-6-yl)ethanone oxime] | 10 |
| 1 | 21000 | C/C(=N\O)c1ccc2nnc(Cc3c(F)cc4ncc(-c5cnn(C)c5)cc4c3F)n2n1 [Example 22, (E)-1-(3-((5,7-Difluoro-3-(1-methyl-1H-pyrazol-4-yl)quinolin-6-yl)methyl)-[1,2,4]triazolo[4,3-b]pyridazin-6-yl)ethanone oxime] | 3 |
| 0.9 | 17000 | C/C(=N\O)c1ccc2nnc(Sc3ccc4ncc(NC5CCOCC5)cc4c3)n2n1 [Example 30, (E)-1-(3-((3-((Tetrahydro-2H-pyran-4-yl)amino)quinolin-6-yl)sulfanyl)-[1,2,4]triazolo[4,3-b]pyridazin-6-yl)-ethanone oxime] | 1 |
| 0.7 | > 30000 | C/C(=N\O)c1ccc2nnc(Sc3ccc4ncc(N5CCC(O)CC5)cc4c3)n2n1 [Example 29, (E)-1-(3-((3-(4-Hydroxypiperidin-1-yl)quinolin-6-yl)sulfanyl)-[1,2,4]triazolo[4,3-b]pyridazin-6-yl)-ethanone oxime] | 1 |
